ChEMBL document CHEMBL1201862, “PubChem BioAssay data set” (2004)
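1) Cells in 96-well plates. 2) Compound, 48 h, 5 concentrations. 3) Linear interpolation between surrounding doses. 4) Unreached endpoint = highest concentration. The concentration for 50% growth inhibition is given as GI50.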 Activity calls are given as the source filed them. Cut-off read from the data, not from the text of the source: active = GI50 up to about 1.1 µM and inactive = higher.

How the values were obtained:
Assay in all cases: growth of human tumour cells (NCI), 48 h
[1] = tested on: XF498
[2] = tested on: M19-MEL
[3] = tested on: RXF 631
[4] = tested on: MDA-N
[5] = tested on: DMS-114
[6] = tested on: LXFL 529
[7] = tested on: DMS-273
[8] = tested on: DLD-1
[9] = tested on: Hs-578T

## COc1ccc2nc(-c3ccc(O)cc3)cc(O)c2c1
[1]
  GI50: 0.556 µM (active)
[2]
  GI50: 0.465 µM (active)
[3]
  GI50: 3.63 µM (inactive)
[4]
  GI50: 2.76 µM (inactive)
[5]
  GI50: 0.474 µM (active)
[6]
  GI50: 1.1 µM (active)
[7]
  GI50: 0.206 µM (active)
[8]
  GI50: 1.35 µM (inactive)
[9]
  GI50: 4.3 µM (inactive)

## CC(=O)CC[N+](C)(C)C
[2]
  GI50: 23.3 µM (inactive)
[3]
  GI50: 28.8 µM (inactive)
[4]
  GI50: 40.7 µM (inactive)
[6]
  GI50: 12.9 µM (inactive)
[7]
  GI50: 21 µM (inactive)
[8]
  GI50: 10.1 µM (inactive)
[9]
  GI50: 12.6 µM (inactive)

## CS/C(=N\c1ccc([N+](=O)[O-])cc1C#N)NC(=O)c1ccccc1
[1]
  GI50: > 100 µM (inactive)
[2]
  GI50: > 100 µM (inactive)
[3]
  GI50: > 100 µM (inactive)
[5]
  GI50: > 100 µM (inactive)
[6]
  GI50: > 100 µM (inactive)
[8]
  GI50: > 100 µM (inactive)

## O=C(Nc1ccc(Cl)cc1Cl)C1C(=O)N(c2ccc(Cl)cc2Cl)C(=O)/C1=N\Nc1ccc([N+](=O)[O-])cc1[N+](=O)[O-] (centres undefined)
[2]
  GI50: 59.3 µM (inactive)
[3]
  GI50: 62.2 µM (inactive)
[5]
  GI50: 13.2 µM (inactive)
[6]
  GI50: 13.9 µM (inactive)
[7]
  GI50: 46.6 µM (inactive)
[8]
  GI50: 46.8 µM (inactive)

## CCOC(=O)C1=C(C)C2C3C(=O)OC(=O)C3C1(C)C1C(=O)OC(=O)C21 (centres undefined)
[2]
  GI50: > 100 µM (inactive)
[3]
  GI50: > 100 µM (inactive)
[5]
  GI50: > 100 µM (inactive)
[6]
  GI50: > 100 µM (inactive)
[7]
  GI50: > 100 µM (inactive)
[8]
  GI50: > 100 µM (inactive)

## CC(=O)N/C(=C\c1ccc(/C=C(\NC(C)=O)c2nc3cc(Cl)ccc3[nH]2)cc1)c1nc2ccccc2[nH]1
[1]
  GI50: > 100 µM (inactive)
[2]
  GI50: > 100 µM (inactive)
[3]
  GI50: > 100 µM (inactive)
[5]
  GI50: > 100 µM (inactive)
[6]
  GI50: > 100 µM (inactive)
[7]
  GI50: > 100 µM (inactive)
[8]
  GI50: > 100 µM (inactive)

## CSc1ccc(/C=C2\CN(C)C/C(=C\c3ccc(SC)cc3)C2=O)cc1
[1]
  GI50: 18.9 µM (inactive)
[2]
  GI50: 35.1 µM (inactive)
[5]
  GI50: 24.9 µM (inactive)
[6]
  GI50: 5.22 µM (inactive)
[7]
  GI50: 14.1 µM (inactive)
[8]
  GI50: 11.5 µM (inactive)

## C1=C(c2ccccc2)C(OC2Oc3ccccc3C=C2c2ccccc2)Oc2ccccc21 (centres undefined)
[1]
  GI50: > 100 µM (inactive)
[2]
  GI50: > 100 µM (inactive)
[3]
  GI50: > 100 µM (inactive)
[5]
  GI50: > 100 µM (inactive)
[6]
  GI50: > 100 µM (inactive)
[7]
  GI50: > 100 µM (inactive)
[8]
  GI50: > 100 µM (inactive)

## Cc1ccc(NC(=O)CCc2nnc(S)[nH]2)cc1
[1]
  GI50: > 100 µM (inactive)
[2]
  GI50: > 100 µM (inactive)
[3]
  GI50: > 100 µM (inactive)
[5]
  GI50: 39.5 µM (inactive)
[6]
  GI50: > 100 µM (inactive)
[7]
  GI50: > 100 µM (inactive)
[8]
  GI50: > 100 µM (inactive)

## Nc1cn(C2OC(CC(c3ccccc3)(c3ccccc3)c3ccccc3)C(O)C2O)c(=O)[nH]c1=O (centres undefined)
[1]
  GI50: 28.6 µM (inactive)
[2]
  GI50: 18.4 µM (inactive)
[3]
  GI50: 43.9 µM (inactive)
[5]
  GI50: 15.5 µM (inactive)
[6]
  GI50: 31.8 µM (inactive)
[7]
  GI50: 33.3 µM (inactive)
[8]
  GI50: 24.5 µM (inactive)

## CC(=O)C1=C(O)C(N)C2Cc3c(c(O)c4c(O)c(C)ccc4c3C)C(=O)C2(O)C1=O (centres undefined)
[1]
  GI50: 1.84 µM (inactive)
[2]
  GI50: 2.48 µM (inactive)
[3]
  GI50: 2.2 µM (inactive)
[5]
  GI50: 2.38 µM (inactive)
[6]
  GI50: 2.66 µM (inactive)
[7]
  GI50: 1.73 µM (inactive)
[8]
  GI50: 2 µM (inactive)

## O=C(CC1(O)C(=O)Nc2ccc([N+](=O)[O-])cc21)c1ccc2ccccc2c1 (centres undefined)
[2]
  GI50: > 100 µM (inactive)
[3]
  GI50: > 100 µM (inactive)
[5]
  GI50: > 100 µM (inactive)
[6]
  GI50: > 100 µM (inactive)
[7]
  GI50: > 100 µM (inactive)
[8]
  GI50: > 100 µM (inactive)

## CCO/N=C(/N)c1ncn(Cc2ccccc2)c1NCC(OCC)OCC
[1]
  GI50: 29.7 µM (inactive)
[2]
  GI50: > 100 µM (inactive)
[5]
  GI50: > 100 µM (inactive)
[6]
  GI50: > 100 µM (inactive)
[7]
  GI50: > 100 µM (inactive)
[8]
  GI50: > 100 µM (inactive)

## CC1OC(=O)N2CCC=CC12 (centres undefined)
[1]
  GI50: > 100 µM (inactive)
[2]
  GI50: > 100 µM (inactive)
[3]
  GI50: > 100 µM (inactive)
[5]
  GI50: > 100 µM (inactive)
[6]
  GI50: > 100 µM (inactive)
[7]
  GI50: > 100 µM (inactive)
[8]
  GI50: > 100 µM (inactive)
